In assay [1] the target is Ataxin-3 (Homo sapiens) (UniProt P54252). The assay can be described thus: Inhibition of human Ataxin-3 (1 to 370 residues) expressed in Escherichia coli BL21 (DE3) using ubiquitin rhodamine 110 as substrate assessed as remaining enzyme activity at 10 to 50 uM by fluorometric assay. To be noted: dose 10-50 µM.
Assay [2] addresses Ubiquitin carboxyl-terminal hydrolase 9X (Homo sapiens) (UniProt Q93008). The assay is described as follows: Inhibition of human USP9X (1551 to 1970 residues) expressed in Escherichia coli BL21 (DE3) using ubiquitin rhodamine 110 as substrate assessed as remaining enzyme activity at 10 to 50 uM by fluorometric assay. To be noted: dose 10-50 µM.
Assay [3] has as its system Jurkat. The assay can be described thus: Antiproliferative activity against human Jurkat cells assessed as reduction in cell viability up to 30 uM incubated for 72 hrs by CellTiter-Glo luminescent assay. Format: functional, cell-based. A general note: ATP-based viability assays read luminescence as a measure of living cells.
Assay [4] has as its target T1, Ubiquitin carboxyl-terminal hydrolase 30 (Homo sapiens) (UniProt Q70CQ3).
T1 sequence (whole entry): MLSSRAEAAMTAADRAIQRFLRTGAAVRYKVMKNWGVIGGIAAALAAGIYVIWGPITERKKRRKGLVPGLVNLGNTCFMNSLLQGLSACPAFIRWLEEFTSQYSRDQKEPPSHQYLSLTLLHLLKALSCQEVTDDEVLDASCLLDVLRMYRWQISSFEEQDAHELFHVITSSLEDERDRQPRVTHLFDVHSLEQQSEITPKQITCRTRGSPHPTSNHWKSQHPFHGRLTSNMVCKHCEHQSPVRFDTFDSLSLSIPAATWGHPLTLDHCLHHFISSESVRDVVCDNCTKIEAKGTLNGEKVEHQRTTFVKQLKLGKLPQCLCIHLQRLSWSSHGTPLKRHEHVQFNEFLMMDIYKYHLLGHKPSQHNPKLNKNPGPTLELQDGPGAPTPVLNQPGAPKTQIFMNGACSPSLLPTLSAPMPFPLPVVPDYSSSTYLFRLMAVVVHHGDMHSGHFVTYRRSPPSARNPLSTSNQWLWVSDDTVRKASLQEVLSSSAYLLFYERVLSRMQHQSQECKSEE
The assay can be described thus: Inhibition of human USP30 using ubiquitin rhodamine 110 as substrate at 10 to 50 uM by fluorometric assay. The following applies: dose 10-50 µM.

Assay [5] concerns the target Ubiquitin carboxyl-terminal hydrolase 7 (Homo sapiens) (UniProt Q93009). The assay can be described thus: Inhibition of human USP7 using ubiquitin rhodamine 110 as substrate at 10 to 50 uM by fluorometric assay. The following applies: dose 10-50 µM.
The target of assay [6] is T2, Ubiquitin carboxyl-terminal hydrolase 4 (Homo sapiens) (UniProt Q13107).
T2 sequence (whole entry): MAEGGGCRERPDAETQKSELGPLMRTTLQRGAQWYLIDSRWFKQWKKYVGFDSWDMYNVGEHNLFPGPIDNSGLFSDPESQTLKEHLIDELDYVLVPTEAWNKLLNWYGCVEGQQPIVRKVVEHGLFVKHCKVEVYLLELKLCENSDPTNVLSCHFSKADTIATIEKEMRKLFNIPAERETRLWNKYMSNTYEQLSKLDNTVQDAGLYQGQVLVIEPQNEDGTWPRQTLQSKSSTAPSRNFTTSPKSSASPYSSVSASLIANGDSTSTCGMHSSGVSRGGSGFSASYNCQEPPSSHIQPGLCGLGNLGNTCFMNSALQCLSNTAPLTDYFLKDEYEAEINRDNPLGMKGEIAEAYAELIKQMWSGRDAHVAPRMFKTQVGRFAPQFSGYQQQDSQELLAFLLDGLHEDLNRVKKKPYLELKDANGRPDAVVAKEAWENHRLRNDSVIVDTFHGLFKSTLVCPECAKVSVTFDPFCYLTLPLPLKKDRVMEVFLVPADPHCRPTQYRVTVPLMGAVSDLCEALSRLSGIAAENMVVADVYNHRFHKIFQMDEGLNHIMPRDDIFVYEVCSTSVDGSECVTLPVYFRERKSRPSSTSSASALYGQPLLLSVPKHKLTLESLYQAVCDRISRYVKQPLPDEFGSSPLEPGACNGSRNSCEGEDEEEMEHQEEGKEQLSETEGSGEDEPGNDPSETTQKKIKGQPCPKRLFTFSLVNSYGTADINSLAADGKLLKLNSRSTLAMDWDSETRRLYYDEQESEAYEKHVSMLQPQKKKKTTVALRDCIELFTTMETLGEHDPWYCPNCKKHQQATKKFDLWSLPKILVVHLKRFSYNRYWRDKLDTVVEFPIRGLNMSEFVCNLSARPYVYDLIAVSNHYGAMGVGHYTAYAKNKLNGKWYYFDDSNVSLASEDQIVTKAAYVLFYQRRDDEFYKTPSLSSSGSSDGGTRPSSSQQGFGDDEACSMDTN
The assay is described as follows: Inhibition of human USP4 using ubiquitin rhodamine 110 as substrate at 10 to 50 uM by fluorometric assay. The following applies: dose 10-50 µM.

The test system of assay [7] is A549. The assay is described as follows: Antiproliferative activity against human A549 cells assessed as reduction in cell viability up to 30 uM incubated for 72 hrs by CellTiter-Glo luminescent assay. Type of assay: functional, cell-based.
Assay [8] concerns U2OS. The assay can be described thus: Antiproliferative activity against human U2OS cells assessed as reduction in cell viability up to 30 uM incubated for 72 hrs by CellTiter-Glo luminescent assay. Format: functional, cell-based.

Experimental findings from ChEMBL document CHEMBL5247643, “Discovery and Characterization of BAY-805, a Potent and Selective Inhibitor of Ubiquitin-Specific Protease USP21” (J Med Chem, 2023) are described below.

Calls of active or inactive are those of the source. The rule behind the calls is not given here.

Ubiquitin carboxyl-terminal hydrolase 9X (Homo sapiens), sequence (Q93008 whole entry, the tested form may be a part): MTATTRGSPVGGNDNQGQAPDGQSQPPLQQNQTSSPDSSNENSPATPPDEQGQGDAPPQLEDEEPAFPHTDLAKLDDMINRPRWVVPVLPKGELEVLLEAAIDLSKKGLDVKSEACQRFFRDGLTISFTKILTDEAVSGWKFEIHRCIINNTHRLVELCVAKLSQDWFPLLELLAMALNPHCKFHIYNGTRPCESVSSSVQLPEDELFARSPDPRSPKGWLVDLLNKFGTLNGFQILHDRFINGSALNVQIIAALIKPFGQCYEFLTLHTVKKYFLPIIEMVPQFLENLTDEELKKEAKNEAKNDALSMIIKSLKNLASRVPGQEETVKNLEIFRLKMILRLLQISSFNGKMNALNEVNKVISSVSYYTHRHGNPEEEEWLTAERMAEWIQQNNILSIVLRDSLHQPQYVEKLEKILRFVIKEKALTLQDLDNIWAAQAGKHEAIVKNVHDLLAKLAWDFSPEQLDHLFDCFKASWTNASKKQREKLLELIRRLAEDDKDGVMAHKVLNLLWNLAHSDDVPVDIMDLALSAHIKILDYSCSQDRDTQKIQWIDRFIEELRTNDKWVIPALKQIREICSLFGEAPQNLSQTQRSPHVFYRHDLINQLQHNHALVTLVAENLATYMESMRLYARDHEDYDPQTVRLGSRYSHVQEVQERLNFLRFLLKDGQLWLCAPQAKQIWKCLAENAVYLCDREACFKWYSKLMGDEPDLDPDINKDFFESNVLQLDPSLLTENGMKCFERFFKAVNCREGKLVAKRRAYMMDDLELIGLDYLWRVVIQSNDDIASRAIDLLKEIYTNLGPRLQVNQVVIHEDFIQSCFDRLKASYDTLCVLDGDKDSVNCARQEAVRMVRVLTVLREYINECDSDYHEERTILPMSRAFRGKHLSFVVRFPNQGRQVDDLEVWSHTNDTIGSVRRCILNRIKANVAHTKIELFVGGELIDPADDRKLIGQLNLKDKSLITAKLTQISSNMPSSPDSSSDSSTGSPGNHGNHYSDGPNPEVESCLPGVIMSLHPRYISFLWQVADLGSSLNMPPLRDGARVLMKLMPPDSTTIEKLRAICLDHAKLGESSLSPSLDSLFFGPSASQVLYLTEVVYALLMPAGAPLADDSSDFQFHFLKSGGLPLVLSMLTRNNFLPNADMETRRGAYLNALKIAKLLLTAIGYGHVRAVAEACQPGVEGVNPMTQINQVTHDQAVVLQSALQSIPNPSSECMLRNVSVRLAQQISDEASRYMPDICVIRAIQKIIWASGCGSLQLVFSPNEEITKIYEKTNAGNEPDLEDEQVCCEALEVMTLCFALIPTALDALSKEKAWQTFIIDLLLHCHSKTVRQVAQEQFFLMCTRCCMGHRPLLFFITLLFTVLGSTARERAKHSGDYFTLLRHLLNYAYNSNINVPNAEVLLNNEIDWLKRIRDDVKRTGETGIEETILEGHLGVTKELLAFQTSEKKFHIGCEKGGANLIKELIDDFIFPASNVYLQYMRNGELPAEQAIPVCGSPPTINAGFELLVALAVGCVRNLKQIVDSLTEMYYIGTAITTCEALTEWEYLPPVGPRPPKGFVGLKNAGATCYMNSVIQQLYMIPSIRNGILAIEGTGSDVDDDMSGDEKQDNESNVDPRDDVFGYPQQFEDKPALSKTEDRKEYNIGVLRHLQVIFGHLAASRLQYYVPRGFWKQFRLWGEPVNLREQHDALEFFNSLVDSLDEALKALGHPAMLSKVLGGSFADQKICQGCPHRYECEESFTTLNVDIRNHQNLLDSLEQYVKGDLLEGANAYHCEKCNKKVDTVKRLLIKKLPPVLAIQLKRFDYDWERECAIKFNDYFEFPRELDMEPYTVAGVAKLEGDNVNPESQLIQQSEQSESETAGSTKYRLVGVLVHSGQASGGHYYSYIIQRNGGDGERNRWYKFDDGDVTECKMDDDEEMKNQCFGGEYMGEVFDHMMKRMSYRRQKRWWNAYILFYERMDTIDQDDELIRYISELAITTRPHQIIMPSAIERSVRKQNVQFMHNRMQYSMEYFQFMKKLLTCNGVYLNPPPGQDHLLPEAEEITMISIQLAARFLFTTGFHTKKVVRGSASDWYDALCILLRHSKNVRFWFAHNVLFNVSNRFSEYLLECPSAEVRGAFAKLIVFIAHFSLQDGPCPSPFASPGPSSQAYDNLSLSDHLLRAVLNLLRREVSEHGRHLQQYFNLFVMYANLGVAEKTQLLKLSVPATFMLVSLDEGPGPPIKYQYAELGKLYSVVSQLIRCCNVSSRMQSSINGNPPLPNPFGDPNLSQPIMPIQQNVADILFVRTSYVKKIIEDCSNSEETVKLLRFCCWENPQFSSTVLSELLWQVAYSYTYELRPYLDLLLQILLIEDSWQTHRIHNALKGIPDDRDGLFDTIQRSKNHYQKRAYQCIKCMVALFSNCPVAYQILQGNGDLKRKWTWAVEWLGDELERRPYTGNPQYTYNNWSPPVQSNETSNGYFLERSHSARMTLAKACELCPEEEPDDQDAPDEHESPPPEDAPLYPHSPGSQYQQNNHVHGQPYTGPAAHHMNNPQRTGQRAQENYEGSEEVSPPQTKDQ
Ubiquitin carboxyl-terminal hydrolase 7 (Homo sapiens), sequence (Q93009 whole entry, looked up): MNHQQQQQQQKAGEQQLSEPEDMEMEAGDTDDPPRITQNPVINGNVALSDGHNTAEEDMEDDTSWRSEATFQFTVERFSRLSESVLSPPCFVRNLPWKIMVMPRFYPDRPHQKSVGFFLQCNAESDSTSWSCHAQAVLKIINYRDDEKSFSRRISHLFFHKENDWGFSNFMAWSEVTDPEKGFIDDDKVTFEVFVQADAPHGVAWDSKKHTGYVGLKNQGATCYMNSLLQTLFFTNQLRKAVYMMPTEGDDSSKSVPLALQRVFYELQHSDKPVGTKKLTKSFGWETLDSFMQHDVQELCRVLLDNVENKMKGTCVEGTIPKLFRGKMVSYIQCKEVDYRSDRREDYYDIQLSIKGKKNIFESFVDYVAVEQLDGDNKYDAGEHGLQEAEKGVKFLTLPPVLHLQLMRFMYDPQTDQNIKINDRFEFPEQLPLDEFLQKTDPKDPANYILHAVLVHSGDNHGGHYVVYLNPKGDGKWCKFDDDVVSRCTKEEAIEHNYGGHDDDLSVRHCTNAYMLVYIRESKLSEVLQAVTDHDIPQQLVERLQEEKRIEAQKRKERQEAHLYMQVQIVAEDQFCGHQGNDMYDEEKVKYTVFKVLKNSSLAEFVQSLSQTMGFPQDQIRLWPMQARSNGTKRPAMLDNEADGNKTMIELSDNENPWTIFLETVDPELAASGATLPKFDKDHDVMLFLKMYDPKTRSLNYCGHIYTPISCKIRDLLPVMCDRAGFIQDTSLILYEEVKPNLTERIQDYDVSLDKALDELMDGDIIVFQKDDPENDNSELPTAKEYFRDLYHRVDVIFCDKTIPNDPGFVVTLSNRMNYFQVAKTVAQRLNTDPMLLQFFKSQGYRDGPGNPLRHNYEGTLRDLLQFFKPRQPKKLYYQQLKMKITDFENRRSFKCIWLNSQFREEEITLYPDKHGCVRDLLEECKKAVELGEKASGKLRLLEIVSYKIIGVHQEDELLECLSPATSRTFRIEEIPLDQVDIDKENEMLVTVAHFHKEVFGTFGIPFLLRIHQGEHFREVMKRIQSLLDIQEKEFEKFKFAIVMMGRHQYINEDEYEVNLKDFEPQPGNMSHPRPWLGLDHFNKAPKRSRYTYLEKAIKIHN
Ataxin-3 (Homo sapiens), sequence (P54252 whole entry, the tested form may be a part): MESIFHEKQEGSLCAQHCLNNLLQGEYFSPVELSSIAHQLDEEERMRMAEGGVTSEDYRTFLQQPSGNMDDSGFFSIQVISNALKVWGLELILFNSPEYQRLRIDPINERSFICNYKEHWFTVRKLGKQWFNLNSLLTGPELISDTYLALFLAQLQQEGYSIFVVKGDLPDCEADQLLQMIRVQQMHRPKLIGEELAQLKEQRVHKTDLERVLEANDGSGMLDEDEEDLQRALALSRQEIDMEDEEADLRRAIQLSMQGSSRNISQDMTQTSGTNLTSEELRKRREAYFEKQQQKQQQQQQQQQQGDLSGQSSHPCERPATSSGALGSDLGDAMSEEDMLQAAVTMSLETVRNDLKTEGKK

As for `CC(NC(=O)C1CCCC1)C(=O)Nc1nnc(Cc2ccc([N+](=O)[O-])cc2)s1` (racemic), the Activity in assay [1] and in assay [2] was below 50% throughout.

Consider `CC(C)C[C@H](NC(=O)C1(C(F)(F)F)CCCCC1)C(=O)Nc1nnc(Cc2ccc(C#N)cc2)s1`, for which the outcome in assay [3], in assay [7] and in assay [8] was inactive. Besides, the inhibition entry in assay [4], in assay [5] and in assay [6] was “inactive” in each case.
